Assay results reported in patent publication US20200121884A1, “BIOACTIVATION METHOD FOR ENHANCING NEURAL ACTIVITY AND BLOOD C[…] OF LIVING BODY” (Aqua Bank CO.,LTD., priority 2017, published 2020).

Legend:
[1] = tested on: healthy women in their 20's to 30's; details: 17 subjects, evaluation in score
Description: (§1) In the verification test using this method, hydrogen mainly produced by the hydrogen generating device (an electrolytic hydrogen gas suction tool 100 which will be described later) is orally suctioned. More specifically, hydrogen generated by the hydrogen generatingor device 100 is suctioned by spontaneous breathing for approximately 10 minutes. The amount of hydrogen generated per minute is 8 cc per minute by electrolysis (4 cc of oxygen is also generated at the same time) and thus, 12 cc per minute of a gas mixture of oxygen/hydrogen is generated. This gas mixture is suctioned by spontaneous breathing. Normally, since an adult suctions approximately 5 litters of air per minute under spontaneous breathing, assuming that all the generated gas mixture is suctioned, the gas mixture at 0.24% at the maximum (hydrogen 0.18%, oxygen 0.06%) is contained in an expiratory air. […]
(§2) For an action of the central nervous activity by hydrogen, a brain stress test utilized for the purpose of evaluating an activity degree and a stress degree of the brain is conducted, and the brain activity degree (degree of fatigue) is measured by a flicker device. Moreover, influences of a sight function, a skin sensibility function, a gravity balance function and the like are measured by a brain executive function meter. […]

[2] = tested on: healthy women in their 20's to 30's; details: 17 subjects, subjective five-grade evaluation, FIG. 6
Description: (§3) In the verification test using this method, hydrogen mainly produced by the hydrogen generating device (an electrolytic hydrogen gas suction tool 100 which will be described later) is orally suctioned. More specifically, hydrogen generated by the hydrogen generatingor device 100 is suctioned by spontaneous breathing for approximately 10 minutes. The amount of hydrogen generated per minute is 8 cc per minute by electrolysis (4 cc of oxygen is also generated at the same time) and thus, 12 cc per minute of a gas mixture of oxygen/hydrogen is generated. This gas mixture is suctioned by spontaneous breathing. Normally, since an adult suctions approximately 5 litters of air per minute under spontaneous breathing, assuming that all the generated gas mixture is suctioned, the gas mixture at 0.24% at the maximum (hydrogen 0.18%, oxygen 0.06%) is contained in an expiratory air.
The subjects were 20 selected subjects, grouped into two groups, considering the ages and test time slots (morning and afternoon), and measurement was conducted for 10 subjects a day.
The testing method is as follows: • (1) In the main test, each subject should suction hydrogen. • (2) Tests/evaluations which will be described later shall be conducted for each subject while each subject is suctioning hydrogen, and by comparing/examining each evaluation before and after the suctioning, physiological effects by hydrogen is verified. • (3) For the subject who is sitting on a chair for measurement with his/her eyes open, a test manager or a test cooperator prepares a hydrogen generating tool (not generating hydrogen) which is a control and assigns it to the subject. The subject shall put his/her mouth to a nozzle 5 of an electrolytic hydrogen gas suction tool 100 which is this hydrogen generating device (see FIGS. 7 to 10) or a tube portion connected to that and normally breath for approximately 10 minutes. After that, each measurement which will be described later is conducted at any time. After that, the subject puts his/her mouth to the nozzle 5 of the electrolytic hydrogen gas suction tool 100 which generates hydrogen or the tube portion connected to that as a subject sample and suctions hydrogen for 10 minutes similarly. After that, each measurement is made. If abnormality is found in the subject while the subject is suctioning hydrogen, the test manager or the test cooperator shall immediately stop the suctioning. When the suctioning of hydrogen is stopped, the practitioner shall record the fact of the stop and suctioning time in a clinical report. • (4) The test manager shall check if a harmful phenomenon has occurred in the subject during the test or not.
For an action of the central nervous activity by hydrogen, a brain stress test utilized for the purpose of evaluating an activity degree and a stress degree of the brain is conducted, and the brain activity degree (degree of fatigue) is measured by a flicker device. Moreover, influences of a sight function, a skin sensibility function, a gravity balance function and the like are measured by a brain executive function meter. For a change in emotional feelings, an ability of concentration, sleepiness and the like are examined by interview by using a multilateral emotional state scale. The respective measurements will be described in brief below.

[3] = tested on: healthy women in their 20's to 30's; details: 17 subjects, before vs after suctioning, Table 1 and FIG. 1
Description: as §3
The subjects were 20 selected subjects, grouped into two groups, considering the ages and test time slots (morning and afternoon), and measurement was conducted for 10 subjects a day. […]

[4] = tested on: healthy women in their 20's to 30's; details: 17 subjects, Table 4 and FIG. 5
Description: as §1, with “breathing.” for “breathing. Normally, since an adult suctions approximately 5 litters of air per minute under spontaneous breathing, assuming that all the generated gas mixture is suctioned, the gas mixture at 0.24% at the maximum (hydrogen 0.18%, oxygen 0.06%) is contained in an expiratory air.”
as §2
Actions to the brain executive functions (right-and-left cognitive function, sight function, short-time memory, skin sensibility, gravity balance and the like are comprehensively analyzed) are analyzed (measurement instrument: Brain executive function meter by Anima).

[5] = tested on: healthy women in their 20's to 30's; details: 17 subjects, before vs after suctioning, Table 2 and FIG. 2
Description: as §1, with “breathing.” for “breathing. Normally, since an adult suctions approximately 5 litters of air per minute under spontaneous breathing, assuming that all the generated gas mixture is suctioned, the gas mixture at 0.24% at the maximum (hydrogen 0.18%, oxygen 0.06%) is contained in an expiratory air.”
By paying attention to a physiological reaction that a skin temperature of a distal end section (the forehead center part and a first knuckle-joint cushion side part of the index finger are measured this time) is changed in accordance with predominance of the sympathetic nervous activity, the change in the skin temperature is measured by a temperature sensor over time before and after drinking of the hydrogen solution. The temperature sensor body has an approximate size of a thickness of 1 mm and a diameter of 3 mm, and the change in the skin temperature is measured by a recorder in a wired manner from the sensor.

Compound: [HH] [hydrogen]
- brain stress, change by hydrogen suctioning ([1]; Table 3 and FIG. 3): significantly decreased
- brain rotation degree score, change by hydrogen suctioning ([1]; Table 3 and FIG. 4): significantly raised
- fatigue feeling, change by hydrogen suctioning [2]: decreased
- feeling of concentration, change by hydrogen suctioning [2]: significantly raised
- feeling of exhilarating, change by hydrogen suctioning [2]: significantly raised
- feeling of refreshing, change by hydrogen suctioning [2]: significantly raised
- spontaneous stress, change by hydrogen suctioning [2]: decreased
- pupil contraction rate (CR value), change by hydrogen suctioning [3]: significantly increased
- right-and-left cognitive function, change by hydrogen suctioning [4]: remarkable improvement
- short-term memory, change by hydrogen suctioning [4]: remarkable improvement
- peripheral skin temperature, change by hydrogen suctioning [5]: significantly raised
